According to patent US20060247311A1, “Methods for treating lower urinary tract disorders using alpha2delta subunit calcium channel modulators with smooth muscle modulators” (priority 2003, published 2006):
Where “and” joins values, the source holds several entries; their conditions need not be identical. Equal entries are not always repeated.

Legend:
[1] = test system: α2δ subunit of calcium channels; conditions: Bryans et al. (1999); cited from earlier work
[2] = preclinical and clinical studies, in contrast to gabapentin itself, cited from earlier work
[3] = test system: bladder instability and bladder capacity in SCI rats; conditions: SCI rats (Cheng et al., 1995); cited from earlier work
[4] = test system: reduction in bladder capacity following continuous infusion of dilute acetic acid; experiment: Dilute acetic acid model in cats (bladder capacity, voiding efficiency); type: in vivo; conditions: cat, gabapentin 30 mg/kg dose alone
Description: The objective of this study was to determine the ability of an α2δ subunit calcium channel modulator in combination with a smooth muscle modulator to reverse the reduction in bladder capacity seen following continuous infusion of dilute acetic acid in a cat model, a commonly used model of overactive bladder.
Alpha-chloralose anesthetized (50-100 mg/kg) normal female cats (2.5-3.5 kg; Harlan) were utilized in this study.
Animals were dosed by volume of injection=body weight in kg.
Female cats (2.5-3.5 kg; Harlan) had their food removed the night before the experiment. The following morning, the cat was anesthetized with isoflurane and prepped for surgery using aseptic technique. Polyethylene catheters were surgically placed to permit the measurement of bladder pressure, urethral pressure, arterial pressure, respiratory rate as well as for the delivery of drugs. Fine wire electrodes were implanted alongside the external urethral anal sphincter. Following surgery, the cats were slowly switched from the gas anesthetic isoflurane (2-3.5%) to alpha-chloralose (50-100 mg/kg). During control cystometry, saline was slowly infused into the bladder (0.5-1.0 m/min) for 1 hour. […] After assessing the cystometric variables under these baseline conditions, the effects of test drug(s) on micturition were determined via a 3-5 point dose response protocols. […]

in vivo = conditions: female, rat, iv; for AUC(0-t): AUC0-t (Mean); for Cmax: Cmax (Mean); for Vd: Vz (Mean); for half-life: t1/2 (Mean)
[5] = test system: reduction in bladder capacity following continuous infusion of dilute acetic acid; experiment: Dilute acetic acid model, acute anesthetized in vivo model (bladder capacity by cystometry); conditions: rat, isobologram construction, i.v.; both drugs alone and low-dose combinations
Source text: Urethane anesthetized (1.2 g/kg) normal female rats were utilized in this study.
Animal Preparation: Female rats (250-300 g body weight) were anesthetized with urethane (1.2 g/kg) and a saline-filled catheter (PE-50) was inserted into the jugular vein for intravenous drug administration. […] The abdominal cavity was moistened with saline and closed by covering with a thin plastic sheet in order to maintain access to the bladder for emptying purposes. Fine silver or stainless steel wire electrodes were inserted into the external urethral sphincter (EUS) percutaneously for electromyography (EMG).
Following 30 minutes of AA infusion, 3 vehicle injections were made at 20 minute intervals to determine vehicle effects, if any.
P<0.050 was considered significant.

[6] = 100 mg/kg, gabapentin in rat plasma after 100 mg/kg gabapentin i.v., alone (Gab) or with 3 mg/kg oxybutynin (Com), group Mean, outliers excluded
[7] = 100 mg/kg, gabapentin in rat plasma after 100 mg/kg gabapentin i.v., alone (Gab) or with 3 mg/kg oxybutynin (Com), group Mean
[8] = female, rat, in vivo, iv, 3 mg/kg

For `CC(C)C[C@H](CN)CC(=O)O` [Pregabalin, (S)-(3-aminomethyl)-5-methylhexanoic acid], the “binding affinity for the α2δ subunit of calcium channels compared with gabapentin” value [1] is given as “even higher binding affinity”.

For `CC(OC(=O)NCC1(CC(=O)O)CCCCC1)OC(=O)C(C)C` (stereo not drawn) [XP13512], the “blood levels of gabapentin across a broad range of oral doses” value ([2]; oral) is given as “dose proportional blood levels of gabapentin” and the “absorption from the large intestine” value [2] is given as “absorbed efficiently from the large intestine”.

In the case of `COc1cc(CNC(=O)CCCC/C=C/C(C)C)ccc1O` [capsaicin], the “bladder capacity to voiding” value [3] is listed as “not effect bladder capacity to voiding” and the bladder instability [3] is listed as “reduce bladder instability”.

With `NCC1(CC(=O)O)CCCCC1` [gabapentin, 1-(aminomethyl) cyclohexaneacetic acid] the “effect on bladder capacity” value [4] was “no significant effect”, the “AUC0-∞” value (gabapentin in rat plasma after 100 mg/kg gabapentin i.v., alone (Gab) or with 3 mg/kg oxybutynin (Com), individual animals, listed as Gab) was 1.37e+07 ng·min/mL and 2.19e+07 ng·min/mL and 1.44e+07 ng·min/mL and the AUC(0-t) (in vivo; [6]) was 158 µg·h/mL. It also gave an AUC(0-inf) (in vivo; 100 mg/kg, AUC0-∞ (Mean), gabapentin in rat plasma after 100 mg/kg gabapentin i.v., alone (Gab) or with 3 mg/kg oxybutynin (Com), group Mean) of 270 µg·h/mL, an AUC(0-inf) (in vivo; 100 mg/kg, AUC0-∞, gabapentin in rat plasma after 100 mg/kg gabapentin i.v., alone (Gab) or with 3 mg/kg oxybutynin (Com), individual animals) of 325 µg·h/mL and a clearance (in vivo; 100 mg/kg, CL (Mean), gabapentin in rat plasma after 100 mg/kg gabapentin i.v., alone (Gab) or with 3 mg/kg oxybutynin (Com), group Mean) of 6.52 mL/min/kg. The clearance (in vivo; 100 mg/kg, CL, gabapentin in rat plasma after 100 mg/kg gabapentin i.v., alone (Gab) or with 3 mg/kg oxybutynin (Com), individual animals) was 5.12 mL/min/kg, the Cmax (in vivo; [6]) was 98600 ng/mL and the Tmax (in vivo; 100 mg/kg, Tmax, gabapentin in rat plasma after 100 mg/kg gabapentin i.v., alone (Gab) or with 3 mg/kg oxybutynin (Com), individual animals) was 15 min. For the same compound, the Vd (in vivo; [7]) was 1.24 L/kg, the half-life (in vivo; [7]) was 128 min and the “common maximal effect / target value, return to % of saline control bladder capacity (individual responses)” value [5] was 31 % of saline control. For the same compound, the “common maximal effect, return to % of saline control bladder capacity (group mean data)” value [5] was 43 % of saline control.

For `CCN(CC)CC#CCOC(=O)C(O)(c1ccccc1)C1CCCCC1` (stereo not drawn) [oxybutynin, 4-diethylaminio-2-butynyl phenylcyclohexyglycolate], the “AUC0-t (Mean)” value [8] was 144 ng·min/mL, the “AUC0-∞ (Mean)” value [8] was 289 ng·min/mL and the “Vz (Mean)” value [8] was 1310.999 L/kg. It also gave a Tmax (in vivo; 3 mg/kg) of 15 min, an AUC(0-t) (in vivo; 3 mg/kg) of 0.335 µg·h/mL and an AUC(0-inf) (in vivo; 3 mg/kg, AUC0-∞ (Mean)) of 0.41 µg·h/mL. It also gave a clearance (in vivo; 3 mg/kg, CL (Mean)) of 134 mL/min/kg, a Cmax (in vivo; 3 mg/kg) of 329 ng/mL and a Vd (in vivo; 3 mg/kg) of 10.1 L/kg. For the same compound, the half-life (in vivo; 3 mg/kg) was 54 min, the “common maximal effect / target value, return to % of saline control bladder capacity (individual responses)” value [5] was 31 % of saline control and the “common maximal effect, return to % of saline control bladder capacity (group mean data)” value [5] was 43 % of saline control.
